Data on 23 compounds can be found in ChEMBL document CHEMBL3044679, “Synthesis and biological evaluation of some stilbene derivatives” (Med Chem Res, 2011).

In general, IC50 refers to the concentration at which inhibition is half-maximal. A high value points to a need for much substance.

Holding throughout (assay type): functional, cell-based
The test system of one test is MOLT-4. Nature of the test: Cytostatic activity against Homo sapiens (human) Molt4/C8 cells after 72 hr by coulter counter analysis. The note with it: MOLT-4, 72 h.
In another test the test system is L1210. Nature of the test: Cytostatic activity against Mus musculus (mouse) L1210 cells after 48 hr by coulter counter analysis. The settings on record: L1210, 48 h.
In the next test the test system is CCRF-CEM. Nature of the test: Cytostatic activity against Homo sapiens (human) CEM cells after 72 hr by coulter counter analysis.

Converted amounts (≈) assume the structure as drawn.

In the case of `O=C(O)/C(=C/c1ccccc1Cl)c1ccccc1`, the IC50 in the test with MOLT-4 amounted to 37 µg/mL (≈ 143 µM); in the test on L1210 it was 76 µg/mL (≈ 294 µM); in the test with CCRF-CEM it was 93 µg/mL (≈ 359 µM).

For `O=C(O)/C(=C/c1ccccc1F)c1ccccc1`, the IC50 in the test on MOLT-4 was 89 µg/mL (≈ 367 µM); in the test on L1210, more than 200 µg/mL; with CCRF-CEM, more than 200 µg/mL.

Consider `CNC(=O)/C(=C/c1ccccc1Cl)c1ccccc1`, for which the IC50 in the test with MOLT-4 is 77 µg/mL (≈ 283 µM); in the test on L1210 it was 65 µg/mL (≈ 239 µM); with CCRF-CEM, 60 µg/mL (≈ 221 µM).

`CNC(=O)/C(=C/c1ccc(OC)cc1)c1ccccc1`: the figures for the IC50 in the test with MOLT-4, in the test on L1210 and in the test with CCRF-CEM were 166 µg/mL (≈ 621 µM), 68 µg/mL (≈ 254 µM) and 128 µg/mL (≈ 479 µM), respectively.

With `CCN(CC)C(=O)/C(=C/c1ccccc1Cl)c1ccccc1`, the IC50 came out at 14 µg/mL (≈ 44.6 µM) with MOLT-4, 24 µg/mL (≈ 76.5 µM) in the test with L1210 and 18 µg/mL (≈ 57.4 µM) in the test on CCRF-CEM.

For `CCNC(=O)/C(=C/c1ccccc1)c1ccccc1`, the IC50 in the test on MOLT-4 worked out at 112 µg/mL (≈ 446 µM); in the test with L1210, 132 µg/mL (≈ 525 µM); in the test with CCRF-CEM it was 26 µg/mL (≈ 103 µM).

Regarding `CCNC(=O)/C(=C/c1ccc(OC)cc1)c1ccccc1`, the IC50 in the test on MOLT-4 is 150 µg/mL (≈ 533 µM); in the test with L1210, 148 µg/mL (≈ 526 µM); in the test with CCRF-CEM, 116 µg/mL (≈ 412 µM).

In the case of `CNC(=O)/C(=C/c1ccccc1F)c1ccccc1`, the results for the IC50 with MOLT-4, in the test with L1210 and with CCRF-CEM were 72 µg/mL (≈ 282 µM), 85 µg/mL (≈ 333 µM) and 89 µg/mL (≈ 349 µM), respectively.

`CNC(=O)/C(=C/c1ccccc1O)c1ccccc1`: the IC50 in the test on MOLT-4, in the test with L1210 and with CCRF-CEM was more than 200 µg/mL throughout.

Turning to `COC(=O)/C(=C/c1ccccc1Cl)c1ccccc1`, the IC50 is 16 µg/mL (≈ 58.7 µM) with MOLT-4, 25 µg/mL (≈ 91.7 µM) with L1210 and 19 µg/mL (≈ 69.7 µM) in the test with CCRF-CEM.

For `COC(=O)/C(=C/c1ccc(OC)cc1)c1ccccc1`, the IC50 came to 71 µg/mL (≈ 265 µM) with MOLT-4, 66 µg/mL (≈ 246 µM) with L1210 and 71 µg/mL (≈ 265 µM) in the test on CCRF-CEM.

Take `Fc1ccc(/N=C/c2ccccc2Cl)cc1Cl`: the results for the IC50 in the test with MOLT-4, in the test with L1210 and in the test on CCRF-CEM were 3.9 µg/mL (≈ 14.5 µM), 6.4 µg/mL (≈ 23.9 µM) and 10 µg/mL (≈ 37.3 µM), respectively.

As to `Fc1ccc(/N=C/c2ccccc2Cl)cc1`, the IC50 in the test with MOLT-4 stood at 0.77 µg/mL (≈ 3.3 µM); in the test with L1210, 6 µg/mL (≈ 25.7 µM); in the test with CCRF-CEM, 2.1 µg/mL (≈ 8.99 µM).

On to `Clc1ccccc1/C=N/c1ccc(Br)cc1`, for which the IC50 was found to be 1.5 µg/mL (≈ 5.09 µM) in the test with MOLT-4, 2.1 µg/mL (≈ 7.13 µM) with L1210 and 4.5 µg/mL (≈ 15.3 µM) in the test on CCRF-CEM.

Consider `Fc1ccc(/N=C/c2cccs2)cc1Cl`, for which the IC50 with MOLT-4 was determined as 16 µg/mL (≈ 66.7 µM); with L1210, 3.2 µg/mL (≈ 13.3 µM); in the test on CCRF-CEM it was 25 µg/mL (≈ 104 µM).

`COc1ccc(/C=C/c2ccc(F)cc2)cc1`: the IC50 is more than 200 µg/mL in the test with MOLT-4, 26 µg/mL (≈ 114 µM) with L1210 and 156 µg/mL (≈ 683 µM) with CCRF-CEM.

Turning to `Fc1ccc(/C=C/c2ccccc2F)cc1`, the IC50 with MOLT-4 came out at 61 µg/mL (≈ 282 µM); in the test on L1210, 62 µg/mL (≈ 287 µM); in the test on CCRF-CEM, 83 µg/mL (≈ 384 µM).

As to `Cc1ccc(/C=C/c2ccccc2F)cc1`, the IC50 was 30 µg/mL (≈ 141 µM) in the test on MOLT-4, 72 µg/mL (≈ 339 µM) in the test on L1210 and 78 µg/mL (≈ 367 µM) in the test on CCRF-CEM.

`Fc1ccc(/C=C/c2ccccc2)cc1`: the IC50 in the test with MOLT-4, in the test on L1210 and in the test with CCRF-CEM was more than 200 µg/mL each time.

For `COc1ccc(/C=C/c2ccc(C)cc2)cc1`, the IC50 with MOLT-4, in the test with L1210 and in the test with CCRF-CEM was more than 200 µg/mL throughout.

For `O=C(O)/C(=C/c1ccccc1O)c1ccccc1`, the IC50 in the test with MOLT-4, in the test with L1210 and in the test with CCRF-CEM was more than 200 µg/mL in each case.

For `Cc1ccc(/C=C/c2ccc(N(C)C)cc2)cc1`, the IC50 in the test with MOLT-4 is more than 200 µg/mL; with L1210 it was 143 µg/mL (≈ 602 µM); in the test with CCRF-CEM, more than 200 µg/mL.

With `N[C@@H](Cc1ccc(N(CCCl)CCCl)cc1)C(=O)O` [MELPHALAN], the IC50 with MOLT-4 was determined as 3.2 µg/mL (≈ 10.5 µM); with L1210, 2.1 µg/mL (≈ 6.88 µM); in the test on CCRF-CEM, 2.5 µg/mL (≈ 8.19 µM).
